# Publication PMC11597817, “Modulation of Multispecific Transporters by Uncaria tomentosa Extract and Its Major Phytoconstituents” (Pharmaceutics, 2024)
# Like-named read-outs stand apart in the source and are kept apart here.
# Experiments:
# Assay type in all cases: cell-based
# [1] = biological target: T1, ENT1 (Homo sapiens, UniProt Q99808); experiment: Uptake inhibition assay, ENT1-overexpressing MDCKII cells; conditions: for IC50: oxindole alkaloids, substrate uridine, read-out: IC50 (95% CI of IC50)
# T1 construct: expressed in transfected cells; host or cells: MDCKII (lentiviral transduction; cDNA synthesised by GenScript)
# T1 sequence (Q99808 1-456): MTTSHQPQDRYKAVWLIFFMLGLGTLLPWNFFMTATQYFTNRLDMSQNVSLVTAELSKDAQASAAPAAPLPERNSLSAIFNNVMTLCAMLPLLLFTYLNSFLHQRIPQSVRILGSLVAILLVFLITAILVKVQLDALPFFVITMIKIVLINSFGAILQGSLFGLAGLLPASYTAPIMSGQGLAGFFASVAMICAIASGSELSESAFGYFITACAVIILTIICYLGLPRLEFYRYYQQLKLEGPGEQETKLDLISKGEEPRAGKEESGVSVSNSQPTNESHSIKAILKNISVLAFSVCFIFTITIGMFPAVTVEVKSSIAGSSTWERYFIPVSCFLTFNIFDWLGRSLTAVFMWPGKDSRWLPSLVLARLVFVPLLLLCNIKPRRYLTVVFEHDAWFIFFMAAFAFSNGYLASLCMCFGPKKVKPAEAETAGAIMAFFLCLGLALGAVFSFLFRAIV
# Excerpt: The human embryonic kidney 293 (HEK293) cell line was purchased from Invitrogen/ThermoFisher (Waltham, MA, USA). Madin–Darby canine kidney II (MDCKII) wild type cells were obtained from the European Collection of Authenticated Cell Cultures (ECACC catalog no. 00062107). HEK293 cells overexpressing the human uptake OATP1B1 (NCBI Reference Sequence: NM_006446.4), OATP1B3 (NM_019844), OATP2B1 (NM_007256), OATP1A2 (NM_134431), OAT1-3 (BC033682.1; NM_006672.3; BC022387), OCT1-3 (BC126364.1; NM_003058; NM_021977), OCTN1 (NM_003059.3), NTCP (NM_003049.3), MATE1 (NM_018242.3), MATE2K (NM_001099646.2), ENT4 (NM_001040661.1), SGLT2 (AJ133127.1), ASCT1/2 (NM_003038.5; NM_005628.3), LAT1/2 (NM_003486.6; NM_012244.4), and THTR1/2 (NM_006996; NM_025243) and mock and human efflux BCRP (NM_004827.2), BSEP (NM_003742.2), MDR1 (NM_000927.4), and MRP1-5 (NM_004996; NM_000392.4; BC137347.1; NM_005845.4; NM_005688.2) transporters as well as MDCKII overexpressing human ENT1/2 (NM_001078177; NM_001532.2) and URAT1 (BC053348) transporters were created by lentiviral transduction. The cDNA encoding respective transporters were synthetized and cloned by GenScript (Piscataway, NJ, USA). […]
# (§1) Plated cells were preincubated with a transport buffer (HBSS) containing 30 or 150 µg/mL of UT extract or 100 µM of isopteropodine, mitraphylline, or uncarine D for 15 min at an appropriate temperature. […] For radiolabeled substrates, accumulation was measured by liquid scintillation counting (MicroBeta Scintillation Counter, PerkinElmer).
# (§2) The transporter-mediated uptake and ATP-dependent transport were determined by subtracting the activity of the control cell/transporter abundant-membrane in the presence of AMP from the activity of the transporter-overexpressing cell/transporter-abundant membrane in the presence of ATP. The relative transporter-specific accumulation was expressed as the percent of DMSO activity. […] Confidence intervals (CIs) of 95% were also determined. […]
# [2] = biological target: T2, OCTN1 (Homo sapiens, UniProt Q9H015); experiment: Uptake inhibition assay, OCTN1-overexpressing HEK293 cells; conditions: in the presence of the alkaloid (100 µM, Figure 3)
# T2 construct: expressed in transfected cells; host or cells: HEK293 (lentiviral transduction; cDNA synthesised by GenScript)
# Procedure: (§3) The human embryonic kidney 293 (HEK293) cell line was purchased from Invitrogen/ThermoFisher (Waltham, MA, USA). Madin–Darby canine kidney II (MDCKII) wild type cells were obtained from the European Collection of Authenticated Cell Cultures (ECACC catalog no. 00062107). […]
# as §1, §2
# [3] = biological target: T3, OAT1 (Homo sapiens, UniProt Q4U2R8); experiment: Uptake inhibition assay, OAT1-overexpressing HEK293 cells; conditions: at 100 µM
# T3 construct: expressed in transfected cells; host or cells: HEK293 (lentiviral transduction; cDNA synthesised by GenScript)
# Procedure: as §3, §1, §2
# [4] = biological target: T4, SGLT2 (Homo sapiens, UniProt P31639); experiment: Uptake inhibition assay, SGLT2-overexpressing HEK293 cells
# T4 construct: expressed in transfected cells; host or cells: HEK293 (lentiviral transduction; cDNA synthesised by GenScript)
# Procedure: as §3, §1, §2
# [5] = biological target: T5, OATP1A2 (Homo sapiens, UniProt P46721); experiment: Uptake inhibition assay, OATP1A2-overexpressing HEK293 cells; conditions: oxindole alkaloids; substrate E3S; read-out: IC50 (95% CI of IC50)
# T5 construct: expressed in transfected cells; host or cells: HEK293 (lentiviral transduction; cDNA synthesised by GenScript)
# Procedure: as §3, §1, §2
# [6] = biological target: T6, OATP1B3 (Homo sapiens, UniProt Q9NPD5); experiment: Uptake inhibition assay, OATP1B3-overexpressing HEK293 cells; conditions: oxindole alkaloids, substrate CCK-8, read-out: IC50 (95% CI of IC50)
# T6 construct: expressed in transfected cells; host or cells: HEK293 (lentiviral transduction; cDNA synthesised by GenScript)
# Procedure: as §3, §1, §2
# [7] = biological target: T7, ENT4 (Homo sapiens, UniProt Q7RTT9); experiment: Uptake inhibition assay, ENT4-overexpressing HEK293 cells; conditions: 100 µM alkaloid
# T7 construct: expressed in transfected cells; host or cells: HEK293 (lentiviral transduction; cDNA synthesised by GenScript)
# Procedure: as §3, §1, §2
# T4 sequence (P31639 whole entry): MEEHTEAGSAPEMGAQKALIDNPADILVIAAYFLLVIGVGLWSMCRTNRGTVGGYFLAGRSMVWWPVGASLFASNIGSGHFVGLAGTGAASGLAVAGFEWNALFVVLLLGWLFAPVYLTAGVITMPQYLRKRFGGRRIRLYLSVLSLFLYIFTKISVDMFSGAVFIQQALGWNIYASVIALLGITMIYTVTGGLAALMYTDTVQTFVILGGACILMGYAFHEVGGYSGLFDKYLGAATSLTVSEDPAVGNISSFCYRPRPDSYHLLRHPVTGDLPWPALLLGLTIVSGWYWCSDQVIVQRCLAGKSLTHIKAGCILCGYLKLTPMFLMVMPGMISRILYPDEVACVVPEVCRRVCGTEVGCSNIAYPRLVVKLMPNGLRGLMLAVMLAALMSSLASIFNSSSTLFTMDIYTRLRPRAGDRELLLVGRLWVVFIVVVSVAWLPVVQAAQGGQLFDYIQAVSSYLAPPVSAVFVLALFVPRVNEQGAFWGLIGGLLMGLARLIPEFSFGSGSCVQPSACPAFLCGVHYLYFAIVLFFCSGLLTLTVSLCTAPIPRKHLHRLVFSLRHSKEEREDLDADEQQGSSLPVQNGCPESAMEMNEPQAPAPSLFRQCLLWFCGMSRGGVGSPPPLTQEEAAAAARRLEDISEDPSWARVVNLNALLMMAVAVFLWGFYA
# T6 sequence (Q9NPD5 whole entry): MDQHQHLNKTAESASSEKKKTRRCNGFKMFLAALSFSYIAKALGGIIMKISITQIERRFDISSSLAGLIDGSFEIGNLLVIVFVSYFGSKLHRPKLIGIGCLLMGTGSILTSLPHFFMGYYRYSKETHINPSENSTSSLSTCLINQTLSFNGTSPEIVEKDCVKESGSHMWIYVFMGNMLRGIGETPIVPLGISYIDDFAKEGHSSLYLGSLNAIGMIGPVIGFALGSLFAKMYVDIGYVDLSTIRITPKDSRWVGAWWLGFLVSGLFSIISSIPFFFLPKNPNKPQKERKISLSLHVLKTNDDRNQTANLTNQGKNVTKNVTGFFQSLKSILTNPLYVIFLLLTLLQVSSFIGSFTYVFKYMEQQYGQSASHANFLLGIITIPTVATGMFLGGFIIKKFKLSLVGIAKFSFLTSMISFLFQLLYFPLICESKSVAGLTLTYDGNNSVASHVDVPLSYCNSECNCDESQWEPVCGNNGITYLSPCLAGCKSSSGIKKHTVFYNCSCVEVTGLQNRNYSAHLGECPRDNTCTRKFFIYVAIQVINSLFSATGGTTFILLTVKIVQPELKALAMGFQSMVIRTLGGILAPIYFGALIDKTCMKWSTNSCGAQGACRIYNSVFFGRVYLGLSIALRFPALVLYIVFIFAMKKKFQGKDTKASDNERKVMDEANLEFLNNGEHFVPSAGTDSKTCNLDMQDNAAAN
# T2 sequence (Q9H015 whole entry): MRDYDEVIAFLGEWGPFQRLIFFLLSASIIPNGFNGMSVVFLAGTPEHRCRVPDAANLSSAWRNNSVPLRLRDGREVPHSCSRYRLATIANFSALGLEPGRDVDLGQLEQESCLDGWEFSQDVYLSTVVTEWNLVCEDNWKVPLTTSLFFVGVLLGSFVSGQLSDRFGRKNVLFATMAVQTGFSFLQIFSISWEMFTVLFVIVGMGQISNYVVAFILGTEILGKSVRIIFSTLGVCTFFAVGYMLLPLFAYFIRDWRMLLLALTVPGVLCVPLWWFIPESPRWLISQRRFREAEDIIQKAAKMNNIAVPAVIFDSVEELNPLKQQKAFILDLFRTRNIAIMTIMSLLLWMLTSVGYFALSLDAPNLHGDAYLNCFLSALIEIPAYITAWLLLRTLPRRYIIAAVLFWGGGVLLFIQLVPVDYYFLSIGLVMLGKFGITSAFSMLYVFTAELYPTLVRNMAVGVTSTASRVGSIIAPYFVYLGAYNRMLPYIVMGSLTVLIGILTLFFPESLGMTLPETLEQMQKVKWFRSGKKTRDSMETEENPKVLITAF
# T5 sequence (P46721 whole entry): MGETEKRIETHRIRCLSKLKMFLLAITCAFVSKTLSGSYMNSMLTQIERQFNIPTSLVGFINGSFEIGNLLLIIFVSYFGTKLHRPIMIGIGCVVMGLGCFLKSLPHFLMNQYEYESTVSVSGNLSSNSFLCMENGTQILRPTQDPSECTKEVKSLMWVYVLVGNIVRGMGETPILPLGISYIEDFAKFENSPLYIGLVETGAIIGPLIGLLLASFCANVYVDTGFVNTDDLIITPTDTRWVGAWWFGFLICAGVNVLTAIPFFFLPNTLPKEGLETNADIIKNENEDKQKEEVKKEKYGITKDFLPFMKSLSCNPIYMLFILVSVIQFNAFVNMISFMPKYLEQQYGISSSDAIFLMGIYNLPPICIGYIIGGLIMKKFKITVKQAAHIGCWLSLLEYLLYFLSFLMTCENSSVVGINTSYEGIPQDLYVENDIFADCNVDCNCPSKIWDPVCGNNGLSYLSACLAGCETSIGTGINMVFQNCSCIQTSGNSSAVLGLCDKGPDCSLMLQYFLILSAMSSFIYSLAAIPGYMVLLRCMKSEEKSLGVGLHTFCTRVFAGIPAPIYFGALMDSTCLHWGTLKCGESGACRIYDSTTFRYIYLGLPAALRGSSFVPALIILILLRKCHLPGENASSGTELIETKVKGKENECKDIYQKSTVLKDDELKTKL
# T7 sequence (Q7RTT9 whole entry): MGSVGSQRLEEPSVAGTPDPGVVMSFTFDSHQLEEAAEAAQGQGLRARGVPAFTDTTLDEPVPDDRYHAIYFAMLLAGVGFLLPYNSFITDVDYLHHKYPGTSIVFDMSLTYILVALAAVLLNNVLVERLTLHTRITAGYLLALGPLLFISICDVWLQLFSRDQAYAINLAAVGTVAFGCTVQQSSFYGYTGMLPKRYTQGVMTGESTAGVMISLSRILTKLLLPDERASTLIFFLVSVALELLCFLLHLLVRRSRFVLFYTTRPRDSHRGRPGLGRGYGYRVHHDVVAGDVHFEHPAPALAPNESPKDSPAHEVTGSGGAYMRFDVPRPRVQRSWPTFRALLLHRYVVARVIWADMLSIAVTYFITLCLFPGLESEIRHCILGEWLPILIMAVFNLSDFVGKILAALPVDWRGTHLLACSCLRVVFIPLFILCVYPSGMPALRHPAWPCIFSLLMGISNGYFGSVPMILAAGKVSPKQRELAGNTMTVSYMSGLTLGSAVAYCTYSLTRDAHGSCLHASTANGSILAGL
# T3 sequence (Q4U2R8 whole entry): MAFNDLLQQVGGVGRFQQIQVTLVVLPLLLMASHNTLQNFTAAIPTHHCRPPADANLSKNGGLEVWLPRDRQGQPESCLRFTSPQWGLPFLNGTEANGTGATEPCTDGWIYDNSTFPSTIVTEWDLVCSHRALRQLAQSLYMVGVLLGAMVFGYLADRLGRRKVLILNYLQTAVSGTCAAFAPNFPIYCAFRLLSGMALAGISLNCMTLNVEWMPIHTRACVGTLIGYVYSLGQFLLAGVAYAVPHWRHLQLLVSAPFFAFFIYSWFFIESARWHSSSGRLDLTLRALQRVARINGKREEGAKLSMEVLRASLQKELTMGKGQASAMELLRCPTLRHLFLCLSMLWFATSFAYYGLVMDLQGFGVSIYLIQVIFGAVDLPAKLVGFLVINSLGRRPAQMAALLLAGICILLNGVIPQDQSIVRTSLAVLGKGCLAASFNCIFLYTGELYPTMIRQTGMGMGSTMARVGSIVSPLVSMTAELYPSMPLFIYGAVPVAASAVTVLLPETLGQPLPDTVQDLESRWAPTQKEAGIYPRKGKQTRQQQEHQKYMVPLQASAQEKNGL
Compound,"transporter-mediated substrate accumulation ([1]; in the presence of the alkaloid (100 µM, Figure 3))",IC50 ([1]; listed as Mitraphylline),IC50 [1],transporter-mediated substrate accumulation [2],decrease of transporter-mediated transport [3],decrease of transporter-mediated transport ([4]; at 100 µM),"IC50 ([4]; oxindole alkaloids, substrate AMG, read-out: IC50 (95% CI of IC50))",IC50 [5],IC50 ([6]; listed as Isopteropodine),IC50 [6],inhibitory effect on transporter-specific transport [7]
COC(=O)C1=CO[C@@H](C)[C@H]2CN3CC[C@]4(C(=O)Nc5ccccc54)[C@@H]3C[C@H]12 [mitraphylline],below 50%,49.6 µM,49.6 µM,below 50%,,,,,,,
COC(=O)C1=CO[C@@H](C)[C@@H]2CN3CC[C@@]4(C(=O)Nc5ccccc54)[C@@H]3C[C@H]12 [isopteropodine],,,,,around 50%,around 50%,72.7 µM,36.1 µM,24.6 µM,24.6 µM,significantly inhibited
